IC50 and EC50 data for 35 molecules are collected here from patent US20170210751A1, “PRMT5 INHIBITORS AND USES THEREOF” (Epizyme, Inc., priority 2014, published 2017).

For test [1], the target named is T1, PRMT5/MEP50 (Homo sapiens, UniProt O14744).
T1 construct: Flag-PRMT5; made in house; host or cells: Spodoptera frugiperda (SF9) insect cells, baculovirus (pDEST8)
In words: PRMT5 Biochemical Assay (PRMT5/MEP50 enzyme assay on peptide substrate, 3H-SAM Flashplate). To be noted: PRMT5/MEP50 4 nM, 3H-SAM 75 nM, peptide 40 nM, 30 min preincubation at 25 degrees Celsius. The procedure, abridged:
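FLAG-PRMT5/His-MEP50 from Sf9 cells (4 nM) preincubated 30 min at 25 °C with compounds, then reacted with 75 nM 3H-SAM and 40 nM biotinylated histone H4 1-15 peptide in Bicine pH 7.6, 1% DMSO. Stopped with 600 uM cold SAM; streptavidin Flashplate capture, scintillation counts; % inhibition fitted to 3- or 4-parameter curve.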

Test [2] deals with Z-138 cell line. The test can be described thus: Z-138 Proliferation Assay (Cell Titer Glo). The class given is cell-based. As to conditions: Homo sapiens, 120 h; Z-138 cells, 5 days incubation, ATP (Cell Titer Glo). The procedure, abridged: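 Z-138 cells in RPMI with 10% FBS exposed 5 days at 37 °C to nine-point 3-fold dilutions, top 20 μM final, 0.2% DMSO, triplicate. ATP-based CellTiter-Glo luminescence; IC50 from 4-parameter fit of normalized curves.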
For orientation: Cellular ATP, detected with luciferase, serves as a proxy for viable cell number.

pEC50, pIC50: −log10 of the molar value. Some results are limits rather than exact numbers.

T1 sequence (O14744 with tags, fused parts or gaps): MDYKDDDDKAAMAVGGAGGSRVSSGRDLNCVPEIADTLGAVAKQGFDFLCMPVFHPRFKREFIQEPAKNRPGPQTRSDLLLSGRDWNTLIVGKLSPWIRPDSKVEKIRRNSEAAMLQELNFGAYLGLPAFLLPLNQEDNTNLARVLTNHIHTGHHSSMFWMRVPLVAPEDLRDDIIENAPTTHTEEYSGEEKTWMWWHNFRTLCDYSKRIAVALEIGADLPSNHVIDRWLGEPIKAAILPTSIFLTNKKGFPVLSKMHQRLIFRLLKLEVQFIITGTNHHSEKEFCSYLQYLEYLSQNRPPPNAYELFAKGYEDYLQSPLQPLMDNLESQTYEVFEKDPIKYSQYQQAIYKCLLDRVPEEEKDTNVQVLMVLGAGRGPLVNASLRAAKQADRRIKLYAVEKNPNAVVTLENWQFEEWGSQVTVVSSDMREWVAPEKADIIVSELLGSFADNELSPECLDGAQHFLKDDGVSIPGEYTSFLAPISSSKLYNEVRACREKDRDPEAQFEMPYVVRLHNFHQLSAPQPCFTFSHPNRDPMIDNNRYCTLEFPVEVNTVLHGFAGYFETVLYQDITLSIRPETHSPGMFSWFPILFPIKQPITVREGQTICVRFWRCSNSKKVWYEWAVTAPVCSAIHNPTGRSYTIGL
T1 sequence (Q9BQA1 with tags, fused parts or gaps partner limits assumed): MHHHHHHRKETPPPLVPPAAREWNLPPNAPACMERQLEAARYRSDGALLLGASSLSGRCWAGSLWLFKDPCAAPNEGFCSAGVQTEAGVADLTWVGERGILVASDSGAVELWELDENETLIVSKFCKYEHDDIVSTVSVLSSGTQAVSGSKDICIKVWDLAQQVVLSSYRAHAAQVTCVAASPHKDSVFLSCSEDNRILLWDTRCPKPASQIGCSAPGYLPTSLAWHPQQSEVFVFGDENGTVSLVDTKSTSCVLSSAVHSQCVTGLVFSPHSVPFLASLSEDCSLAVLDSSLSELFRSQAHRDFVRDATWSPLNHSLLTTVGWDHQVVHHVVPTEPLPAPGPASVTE

As usually defined, the pIC50 is the IC50 on a negative log10 scale, so that one unit is a factor of ten. The pEC50 is the EC50 on a negative log10 scale, so that one unit is a factor of ten. Regarding `CC(=O)N1CCC(Nc2cc(C(=O)NC[C@H](O)CN3CCc4scc(C)c4C3)ccn2)CC1` [Compound 1-14, (S)-2-((1-acetylpiperidin-4-yl)amino)-N-(2-hydroxy-3-(3-methyl-6,7-dihydrothieno[3,2-c]pyridin-5(4H)-yl)propyl)isonicotinamide], the pIC50 in test [1] is over 7.00. For the same molecule, the negative logarithm of the EC50 (pEC50) in test [2] was 6.00 to 7.00.
Consider `CC(=O)N1CCC(Nc2cc(C(=O)NC[C@H](O)CN3CCc4ncsc4C3)ncn2)CC1` [Compound 1-18, (S)-6-((1-acetylpiperidin-4-yl)amino)-N-(3-(6,7-dihydrothiazolo[5,4-c]pyridin-5(4H)-yl)-2-hydroxypropyl)pyrimidine-4-carboxamide], for which the pIC50 in test [1] was 5.00 to 6.00. The molecule also had a negative logarithm of the EC50 (pEC50) in test [2] of under 5.30.
Turning to `O=C(COc1cccc2cccnc12)NCC(O)CN1CCc2nc[nH]c2C1` (stereo not shown) [Compound 3-10, N-(2-hydroxy-3-{3H,4H,5H,6H,7H-imidazo[4,5-c]pyridin-5-yl}propyl)-2-(quinolin-8-yloxy)acetamide], the pIC50 in test [1] was under 5.00. The pEC50 in test [2] is under 5.30.
For `CC(=O)N1CCC(Nc2cc(C(=O)NC[C@H](O)CN3CCc4cccnc4C3)ncn2)CC1` [Compound 2-11, (S)-6-((1-acetylpiperidin-4-yl)amino)-N-(3-(5,6-dihydro-1,7-naphthyridin-7(8H)-yl)-2-hydroxypropyl)pyrimidine-4-carboxamide], in test [1], the pIC50 was 6.00 to 7.00. Moreover, the pEC50 in test [2] is under 5.30.
In the case of `CC(=O)N1CC(Nc2cc(C(=O)NC[C@H](O)CN3CCc4ccncc4C3)ncn2)C1` [Compound 2-22], the pIC50 in test [1] is 5.00 to 6.00. For the same molecule, the pEC50 in test [2] was under 5.30.
As to `O=C(NC[C@H](O)CN1CCc2cnccc2C1)c1cc(NC2COC2)ncn1` [Compound 2-15], in test [1], the pIC50 is 5.00 to 6.00. Further, the pEC50 in test [2] was under 5.30.
For `O=C(NC[C@H](O)CN1CCc2ncccc2C1)c1cc(NC2COC2)ncn1` [Compound 2-12, (S)—N-(3-(7,8-dihydro-1,6-naphthyridin-6(5H)-yl)-2-hydroxypropyl)-6-(oxetan-3-ylamino)pyrimidine-4-carboxamide], the pIC50 in test [1] is 6.00 to 7.00. In addition, the pEC50 in test [2] was 5.00 to 6.00.
`CC(=O)N1CCC(Nc2cc(C(=O)NC[C@H](O)CN3CCc4nc(C)[nH]c4C3)ccn2)CC1` [Compound 3-54]: the pIC50 in test [1] is under 5.00. In test [2], this molecule showed a pEC50 of under 5.30.
As to `CC(=O)N1CC(Nc2cc(C(=O)NC[C@H](O)CN3CCc4sccc4C3)ncn2)C1` [Compound 1-2, (S)-6-((1-acetylazetidin-3-yl)amino)-N-(3-(6,7-dihydrothieno[3,2-c]pyridin-5(4H)-yl)-2-hydroxypropyl)pyrimidine-4-carboxamide], in test [1], the pIC50 was over 7.00. The pEC50 in test [2] is 6.00 to 7.00.
Turning to `CC(=O)N1CCC(Nc2cc(C(=O)NC[C@H](O)CN3CCc4sccc4C3)ncn2)CC1` [Compound 1-3, (S)-6-((1-acetylpiperidin-4-yl)amino)-N-(3-(6,7-dihydrothieno[3,2-c]pyridin-5(4H)-yl)-2-hydroxypropyl)pyrimidine-4-carboxamide], the pIC50 in test [1] was over 7.00. For the same molecule, in test [2], the pEC50 was 6.00 to 7.00.
For `CC(=O)N1CCC(Nc2cc(C(=O)NC[C@H](O)CN3CCc4ncsc4C3)ccn2)CC1` [Compound 1-19, (S)-2-((1-acetylpiperidin-4-yl)amino)-N-(3-(6,7-dihydrothiazolo[5,4-c]pyridin-5(4H)-yl)-2-hydroxypropyl)isonicotinamide], in that order: 5.00 to 6.00 and under 5.30.
Take `CC(=O)N1CCC(Nc2cc(C(=O)NC[C@H](O)CN3CCc4scnc4C3)ncn2)CC1` [Compound 1-32]: the pIC50 in test [1] is 5.00 to 6.00. In test [2], this molecule gave a pEC50 of under 5.30.
With `CC(=O)N1CCC(Nc2cc(C(=O)NC[C@H](O)CN3CCc4ncccc4C3)ncn2)CC1` [Compound 2-14, (S)-6-((1-acetylpiperidin-4-yl)amino)-N-(3-(7,8-dihydro-1,6-naphthyridin-6(5H)-yl)-2-hydroxypropyl)pyrimidine-4-carboxamide], the pIC50 in test [1] was over 7.00. The pEC50 in test [2] is 5.00 to 6.00.
`CC(=O)N1CCC(Nc2cc(C(=O)NC[C@H](O)CN3CCc4cnccc4C3)ccn2)CC1` [Compound 2-18]: the pIC50 in test [1] was 6.00 to 7.00. For the same molecule, in test [2], the pEC50 is 6.00 to 7.00.
With `CC(=O)N1CCC(Nc2cc(C(=O)NC[C@H](O)CN3CCc4[nH]cnc4C3)ncn2)CC1` [Compound 3-34, (S)-6-((1-acetylpiperidin-4-yl)amino)-N-(3-(6,7-dihydro-1H-imidazo[4,5-c]pyridin-5(4H)-yl)-2-hydroxypropyl)pyrimidine-4-carboxamide], in test [1], the pIC50 was under 5.00. Also, in test [2], the pEC50 was under 5.30.
Turning to `O=C(NC[C@H](O)CN1CCc2ccncc2C1)c1cc(NC2COC2)ncn1` [Compound 2-24], in test [1], the pIC50 is 5.00 to 6.00. In test [2], this molecule had a pEC50 of under 5.30.
Regarding `CC(=O)N1CC(Nc2cc(C(=O)NC[C@H](O)CN3CCc4[nH]ncc4C3)ncn2)C1` [Compound 3-23], in test [1], the pIC50 is 5.00 to 6.00. In addition, the pEC50 in test [2] was under 5.30.
As to `Cc1nc2c([nH]1)CCN(C[C@@H](O)CNC(=O)c1cc(NC3COC3)ncn1)C2` [Compound 3-41], in test [1], the pIC50 was under 5.00. The same molecule showed a pEC50 in test [2] of under 5.30.
Take `O=C(NC[C@H](O)CN1CCc2ncsc2C1)c1cc(NC2COC2)ncn1` [Compound 1-16, (S)—N-(3-(6,7-dihydrothiazolo[5,4-c]pyridin-5(4H)-yl)-2-hydroxypropyl)-6-(oxetan-3-ylamino)pyrimidine-4-carboxamide]: the pIC50 in test [1] was under 5.00. In addition, the pEC50 in test [2] was under 5.30.
On to `CC(=O)N1CCC(Nc2cc(C(=O)NC[C@H](O)CN3CCc4cn[nH]c4C3)ccn2)CC1` [Compound 3-50], for which, in test [1], the negative-log IC50 (pIC50) was under 5.00. This molecule gave a pEC50 in test [2] of under 5.30.
In the same order, the values of `O=C(COc1cccc2cccnc12)NCC(O)CN1CCc2sccc2C1` (stereo not shown) [Compound 1-4, N-(2-hydroxy-3-{4H,5H,6H,7H-thieno[3,2-c]pyridin-5-yl}propyl)-2-(quinolin-8-yloxy)acetamide] are over 7.00 and 5.00 to 6.00.
As for `CC(=O)N1CCC(Nc2cc(C(=O)NC[C@H](O)CN3CCc4nc(N)sc4C3)ccn2)CC1` [Compound 1-35], the pIC50 in test [1] is 6.00 to 7.00. The pEC50 in test [2] is under 5.30.
In the case of `CC(=O)N1CC(Nc2cc(C(=O)NC[C@H](O)CN3CCCc4c3cnn4C)ncn2)C1` [Compound 3-46], in test [1], the pIC50 is under 5.00. Moreover, in test [2], the pEC50 is under 5.30.
With `Cn1ncc2c1CCCN2C[C@@H](O)CNC(=O)c1cc(NC2COC2)ncn1` [Compound 3-40], the pIC50 in test [1] was under 5.00. In test [2], this molecule gave a pEC50 of under 5.30.
Regarding `CC(=O)N1CC(Nc2cc(C(=O)NC[C@H](O)CN3CCc4sc(C)nc4C3)ncn2)C1` [Compound 1-27], in test [1], the negative logarithm of the IC50 (pIC50) is 5.00 to 6.00. Also, the pEC50 in test [2] is under 5.30.
For `CC(=O)N1CCC(Nc2cc(C(=O)NC[C@H](O)CN3CCc4nc(C)sc4C3)ncn2)CC1` [Compound 1-7, (S)-6-((1-acetylpiperidin-4-yl)amino)-N-(2-hydroxy-3-(2-methyl-6,7-dihydrothiazolo[5,4-c]pyridin-5(4H)-yl)propyl)pyrimidine-4-carboxamide], in that order: 5.00 to 6.00 and under 5.30.
For `Cc1nc2c(s1)CN(C[C@@H](O)CNC(=O)c1cc(NC3COC3)ncn1)CC2` [Compound 1-8, (S)—N-(2-hydroxy-3-(2-methyl-6,7-dihydrothiazolo[5,4-c]pyridin-5(4H)-yl)propyl)-6-(oxetan-3-ylamino)pyrimidine-4-carboxamide], in that order: under 5.00 and under 5.30.
For `CC(=O)N1CCC(Nc2cc(C(=O)NC[C@H](O)CN3CCc4ccncc4C3)ccn2)CC1` [Compound 2-19, (S)-2-((1-acetylpiperidin-4-yl)amino)-N-(3-(3,4-dihydro-2,7-naphthyridin-2(1H)-yl)-2-hydroxypropyl)isonicotinamide], in test [1], the pIC50 is 6.00 to 7.00. The molecule further had a pEC50 in test [2] of under 5.30.
For `CC(=O)N1CC(Nc2cc(C(=O)NC[C@H](O)CN3CCc4sc(N)nc4C3)ncn2)C1` [Compound 1-28], the pIC50 in test [1] is 5.00 to 6.00. Moreover, the pEC50 in test [2] was under 5.30.
As for `CC(=O)N1CC(Nc2cc(C(=O)NC[C@H](O)CN3CCc4[nH]c(C)nc4C3)ncn2)C1` [Compound 3-47], the pIC50 in test [1] was under 5.00. Further, the pEC50 in test [2] is under 5.30.
`O=C(COc1cccc2cccnc12)NCC(O)CN1CCc2cnccc2C1` (stereo not shown) [Compound 2-7, N-[2-hydroxy-3-(1,2,3,4-tetrahydro-2,6-naphthyridin-2-yl)propyl]-2-(quinolin-8-yloxy)acetamide]: the pIC50 in test [1] is 5.00 to 6.00. The molecule further had a pEC50 in test [2] of under 5.30.
Consider `CC(=O)N1CCC(Nc2cc(C(=O)NC[C@H](O)CN3CCc4nc(N)sc4C3)ncn2)CC1` [Compound 1-38], for which the pIC50 in test [1] is 5.00 to 6.00. The molecule further showed a pEC50 in test [2] of under 5.30.
Regarding `CC(=O)N1CCC(Nc2cc(C(=O)NC[C@H](O)CN3CCc4sc(N)nc4C3)ccn2)CC1` [Compound 1-34], the pIC50 in test [1] was 6.00 to 7.00. The molecule further showed a pEC50 in test [2] of under 5.30.
For the molecule `CC(=O)N1CCC(Nc2cc(C(=O)NC[C@H](O)CN3CCCc4c3cnn4C)ncn2)CC1` [Compound 3-58], the pIC50 in test [1] was under 5.00. Further, the pEC50 in test [2] is under 5.30.
With `Cn1cnc2c1CN(C[C@@H](O)CNC(=O)c1cc(NC3COC3)ncn1)CC2` [Compound 3-26, (S)—N-(2-hydroxy-3-(3-methyl-6,7-dihydro-3H-imidazo[4,5-c]pyridin-5(4H)-yl)propyl)-6-(oxetan-3-ylamino)pyrimidine-4-carboxamide], the pIC50 in test [1] is under 5.00. In addition, the pEC50 in test [2] is under 5.30.
